Patent US12459922B2 (Gilead Sciences, Inc., priority 2022, dated 2025)

system: endogenous cellular STAT1 (phosphorylated at Tyr701) in NCI-H1373 cells; experiment: Phospho-STAT1 (Tyr701) LANCE Ultra TR-FRET Detection Assay; type: cell-based; settings: Homo sapiens, NCI-H1373, 48 h, phospho-STAT1 (Tyr701) induction, read-out: NH1373 pSTAT1 EC50

| SMILES | EC50 |
| --- | --- |
| Cc1ccc(-c2cc3ccn(CCC[C@H](COC(F)F)Nc4cn[nH]c(=O)c4C(F)(F)F)c(=O)c3cc2F)nc1N [Example 412, (R)-6-(6-amino-5-methylpyridin-2-yl)-2-(5-(difluoromethoxy)-4-((6-oxo-5-(trifluoromethyl)-1,6-dihydropyridazin-4-yl)amino)pentyl)-7-fluoroisoquinolin-1(2H)-one] | 17.4 nM |
| O=c1[nH]ncc(N[C@H](CCCn2cnc3cc(-c4cnc(C5CC5)cn4)c(F)cc3c2=O)COC(F)F)c1C(F)(F)F [Example 413, (R)-7-(5-cyclopropylpyrazin-2-yl)-3-(5-(difluoromethoxy)-4-((6-oxo-5-(trifluoromethyl)-1,6-dihydropyridazin-4-yl)amino)pentyl)-6-fluoroquinazolin-4(3H)-one] | 4.59 nM |
| Nc1nc(-c2cc3ncn(CCC[C@H](COC(F)F)Nc4cn[nH]c(=O)c4C(F)(F)F)c(=O)c3cc2F)nc(C2CC2)c1Cl [Example 414, (R)-7-(4-amino-5-chloro-6-cyclopropylpyrimidin-2-yl)-3-(5-(difluoromethoxy)-4-((6-oxo-5-(trifluoromethyl)-1,6-dihydropyridazin-4-yl)amino)pentyl)-6-fluoroquinazolin-4(3H)-one] | 10.9 nM |
| COc1ncc(-c2cc3ccn(CCC[C@H](COC(F)F)Nc4cn[nH]c(=O)c4C(F)(F)F)c(=O)c3cc2F)nc1N [Example 415, (R)-6-(6-amino-5-methoxypyrazin-2-yl)-2-(5-(difluoromethoxy)-4-((6-oxo-5-(trifluoromethyl)-1,6-dihydropyridazin-4-yl)amino)pentyl)-7-fluoroisoquinolin-1(2H)-one] | 2.49 nM |
| Nc1nc(-c2cc3ccn(CCC[C@H](COC(F)F)Nc4cn[nH]c(=O)c4C(F)(F)F)c(=O)c3cc2F)cnc1C(F)(F)F [Example 416, (R)-6-(6-amino-5-(trifluoromethyl)pyrazin-2-yl)-2-(5-(difluoromethoxy)-4-((6-oxo-5-(trifluoromethyl)-1,6-dihydropyridazin-4-yl)amino)pentyl)-7-fluoroisoquinolin-1(2H)-one] | 6.78 nM |
| O=c1[nH]ncc(N[C@H](CCCn2ccc3cc(-c4cnc(C(F)(F)F)cn4)c(F)cc3c2=O)COC(F)F)c1C(F)(F)F [Example 417, (R)-2-(5-(difluoromethoxy)-4-((6-oxo-5-(trifluoromethyl)-1,6-dihydropyridazin-4-yl)amino)pentyl)-7-fluoro-6-(5-(trifluoromethyl)pyrazin-2-yl)isoquinolin-1(2H)-one] | 2.28 nM |
| Nc1nc(-c2cc3ccn(CCC[C@H](COC(F)F)Nc4cn[nH]c(=O)c4C(F)(F)F)c(=O)c3c(F)c2F)cnc1C(F)(F)F [Example 418, (R)-6-(6-amino-5-(trifluoromethyl)pyrazin-2-yl)-2-(5-(difluoromethoxy)-4-((6-oxo-5-(trifluoromethyl)-1,6-dihydropyridazin-4-yl)amino)pentyl)-7,8-difluoroisoquinolin-1(2H)-one] | 4.58 nM |
| Nc1nc(-c2cc3ncn(CCC[C@H](COC(F)F)Nc4cn[nH]c(=O)c4C(F)(F)F)c(=O)c3cc2F)cnc1C(F)(F)F [Example 419, (R)-7-(6-amino-5-(trifluoromethyl)pyrazin-2-yl)-3-(5-(difluoromethoxy)-4-((6-oxo-5-(trifluoromethyl)-1,6-dihydropyridazin-4-yl)amino)pentyl)-6-fluoroquinazolin-4(3H)-one] | 14.2 nM |
| O=c1[nH]ncc(N[C@H](CCCn2cnc3cc(-c4cnc(C(F)(F)F)cn4)c(F)cc3c2=O)COC(F)F)c1C(F)(F)F [Example 420, (R)-3-(5-(difluoromethoxy)-4-((6-oxo-5-(trifluoromethyl)-1,6-dihydropyridazin-4-yl)amino)pentyl)-6-fluoro-7-(5-(trifluoromethyl)pyrazin-2-yl)quinazolin-4(3H)-one] | 9.41 nM |
| Nc1nc(-c2cc3ccn(CCC[C@H](COC(F)F)Nc4cn[nH]c(=O)c4C(F)(F)F)c(=O)c3cc2F)n[nH]1 [Example 421, (R)-6-(5-amino-1H-1,2,4-triazol-3-yl)-2-(5-(difluoromethoxy)-4-((6-oxo-5-(trifluoromethyl)-1,6-dihydropyridazin-4-yl)amino)pentyl)-7-fluoroisoquinolin-1(2H)-one] | 110 nM |
| O=c1[nH]ncc(N[C@H](CCCn2ccc3cc(-c4cnc(N5CCOCC5)cn4)c(F)cc3c2=O)COC(F)F)c1C(F)(F)F [Example 422, (R)-2-(5-(difluoromethoxy)-4-((6-oxo-5-(trifluoromethyl)-1,6-dihydropyridazin-4-yl)amino)pentyl)-7-fluoro-6-(5-morpholinopyrazin-2-yl)isoquinolin-1(2H)-one] | 87.9 nM |
| O=c1[nH]ncc(N[C@H](CCCn2ccc3cc(-c4cnc(N5CCNCC5)cn4)c(F)cc3c2=O)COC(F)F)c1C(F)(F)F [Example 423, (R)-2-(5-(difluoromethoxy)-4-((6-oxo-5-(trifluoromethyl)-1,6-dihydropyridazin-4-yl)amino)pentyl)-7-fluoro-6-(5-(piperazin-1-yl)pyrazin-2-yl)isoquinolin-1(2H)-one] | 446 nM |
| O=c1[nH]ncc(N[C@H](CCCn2ccc3cc(-c4cnc(C(F)F)cn4)c(F)cc3c2=O)COC(F)F)c1C(F)(F)F [Example 424, (R)-2-(5-(difluoromethoxy)-4-((6-oxo-5-(trifluoromethyl)-1,6-dihydropyridazin-4-yl)amino)pentyl)-6-(5-(difluoromethyl)pyrazin-2-yl)-7-fluoroisoquinolin-1(2H)-one] | 3.11 nM |
| O=c1[nH]ncc(N[C@H](CCCn2cnc3cc(-c4ccc5c(n4)NCCO5)c(F)cc3c2=O)COC(F)F)c1C(F)(F)F [Example 425, (R)-3-(5-(difluoromethoxy)-4-((6-oxo-5-(trifluoromethyl)-1,6-dihydropyridazin-4-yl)amino)pentyl)-7-(3,4-dihydro-2H-pyrido[3,2-b][1,4]oxazin-6-yl)-6-fluoroquinazolin-4(3H)-one] | 9.83 nM |
| Nc1nc(-c2cc3ncn(CCC[C@H](COC(F)F)Nc4cn[nH]c(=O)c4C(F)(F)F)c(=O)c3cc2F)ncc1Cl [Example 426, (R)-7-(4-amino-5-chloropyrimidin-2-yl)-3-(5-(difluoromethoxy)-4-((6-oxo-5-(trifluoromethyl)-1,6-dihydropyridazin-4-yl)amino)pentyl)-6-fluoroquinazolin-4(3H)-one] | 14.2 nM |
| [2H]C([2H])([2H])OC[C@@H](CCCn1ccc2cc(-c3ncc(C(F)(F)F)c(N)n3)c(F)cc2c1=O)Nc1cn[nH]c(=O)c1C(F)(F)F [Example 427, 6-[4-amino-5-(trifluoromethyl)pyrimidin-2-yl]-7-fluoro-2-[(4R)-4-[[6-oxo-5-(trifluoromethyl)-1H-pyridazin-4-yl]amino]-5-(trideuteriomethoxy)pentyl]isoquinolin-1-one] | 2.87 nM |
| [2H]C([2H])([2H])OC[C@@H](CCCn1ccc2cc(-c3ncc(C(F)F)cn3)c(F)cc2c1=O)Nc1cn[nH]c(=O)c1C(F)(F)F [Example 428, 6-[5-(difluoromethyl)pyrimidin-2-yl]-7-fluoro-2-[(4R)-4-[[6-oxo-5-(trifluoromethyl)-1H-pyridazin-4-yl]amino]-5-(trideuteriomethoxy)pentyl]isoquinolin-1-one] | 4.17 nM |
| [2H]C([2H])([2H])OC[C@@H](CCCn1ccc2cc(-c3ncc(C(F)F)c(N)n3)c(F)cc2c1=O)Nc1cn[nH]c(=O)c1C(F)(F)F [Example 429, 6-[4-amino-5-(difluoromethyl)pyrimidin-2-yl]-7-fluoro-2-[(4R)-4-[[6-oxo-5-(trifluoromethyl)-1H-pyridazin-4-yl]amino]-5-(trideuteriomethoxy)pentyl]isoquinolin-1-one] | 7.21 nM |
| [2H]C([2H])([2H])OC[C@@H](CCCn1cnc2cc(-c3ncc(C(F)(F)F)cn3)c(F)cc2c1=O)Nc1cn[nH]c(=O)c1C(F)(F)F [Example 430, 6-fluoro-3-[(4R)-4-[[6-oxo-5-(trifluoromethyl)-1H-pyridazin-4-yl]amino]-5-(trideuteriomethoxy)pentyl]-7-[5-(trifluoromethyl)pyrimidin-2-yl]quinazolin-4-one] | 2.63 nM |
| [2H]C([2H])([2H])OC[C@@H](CCCn1cnc2cc(-c3ncc(C(F)F)cn3)c(F)cc2c1=O)Nc1cn[nH]c(=O)c1C(F)(F)F [Example 431] | 6.42 nM |
| [2H]C([2H])([2H])OC[C@@H](CCCn1cnc2cc(-c3ncc(C(F)(F)F)c(N)n3)c(F)cc2c1=O)Nc1cn[nH]c(=O)c1C(F)(F)F [Example 432] | 12.7 nM |
| [2H]C([2H])([2H])OC[C@@H](CCCn1cnc2cc(-c3ncc(C(F)F)c(N)n3)c(F)cc2c1=O)Nc1cn[nH]c(=O)c1C(F)(F)F [Example 433] | 15.6 nM |
| [2H]C([2H])([2H])OC[C@@H](CCCn1ccc2cc(-c3ccc(C(F)(F)F)cn3)c(F)cc2c1=O)Nc1cn[nH]c(=O)c1C(F)(F)F [Example 434] | 13 nM |
| O=c1[nH]ncc(N[C@H](CCCn2ccc3cc(-c4ncc(C(F)(F)F)cn4)c(F)cc3c2=O)COC(F)(F)F)c1C(F)(F)F [Example 435, (R)-7-fluoro-2-(4-((6-oxo-5-(trifluoromethyl)-1,6-dihydropyridazin-4-yl)amino)-5-(trifluoromethoxy)pentyl)-6-(5-(trifluoromethyl)pyrimidin-2-yl)isoquinolin-1(2H)-one] | 2.83 nM |
| Nc1nc(-c2cc3ccn(Cc4cccc(Nc5cn[nH]c(=O)c5C(F)(F)F)c4)c(=O)c3cc2F)ncc1C(F)(F)F [Example 438, 6-(4-amino-5-(trifluoromethyl)pyrimidin-2-yl)-7-fluoro-2-(3-((6-oxo-5-(trifluoromethyl)-1,6-dihydropyridazin-4-yl)amino)benzyl)isoquinolin-1(2H)-one] | 23.1 nM |
| O=c1[nH]ncc(N[C@H](CCCn2ccc3cc(-c4nc5n(n4)CCNC5)c(F)cc3c2=O)COC(F)F)c1C(F)(F)F [Example 439, (R)-2-(5-(difluoromethoxy)-4-((6-oxo-5-(trifluoromethyl)-1,6-dihydropyridazin-4-yl)amino)pentyl)-7-fluoro-6-(5,6,7,8-tetrahydro-[1,2,4]triazolo[1,5-a]pyrazin-2-yl)isoquinolin-1(2H)-one] | 534 nM |
